IC50 data for twelve molecules are collected here from PubChem BioAssay AID651581 (Sanford-Burnham Center for Chemical Genomics, 2012).

Active and inactive are the calls of the source. The rule behind the calls is not given here.

Experiment [1] has as its target Endothelial PAS domain-containing protein 1 (Homo sapiens) (UniProt Q99814). The experiment in a line: potency against HIF reporters across cell lines – luminescence, panel, selectivity assay for HIF-2a inhibitor project, dose response (AID 651581). Particulars: human cell HIF reporter.
Experiment [2] concerns the target Hypoxia-inducible factor 1-alpha (Homo sapiens) (UniProt Q16665). The description is as above. Particulars: human cell HIF reporter, HIF-1a.

Chain of Hypoxia-inducible factor 1-alpha (Homo sapiens) (Q16665 whole entry, looked up): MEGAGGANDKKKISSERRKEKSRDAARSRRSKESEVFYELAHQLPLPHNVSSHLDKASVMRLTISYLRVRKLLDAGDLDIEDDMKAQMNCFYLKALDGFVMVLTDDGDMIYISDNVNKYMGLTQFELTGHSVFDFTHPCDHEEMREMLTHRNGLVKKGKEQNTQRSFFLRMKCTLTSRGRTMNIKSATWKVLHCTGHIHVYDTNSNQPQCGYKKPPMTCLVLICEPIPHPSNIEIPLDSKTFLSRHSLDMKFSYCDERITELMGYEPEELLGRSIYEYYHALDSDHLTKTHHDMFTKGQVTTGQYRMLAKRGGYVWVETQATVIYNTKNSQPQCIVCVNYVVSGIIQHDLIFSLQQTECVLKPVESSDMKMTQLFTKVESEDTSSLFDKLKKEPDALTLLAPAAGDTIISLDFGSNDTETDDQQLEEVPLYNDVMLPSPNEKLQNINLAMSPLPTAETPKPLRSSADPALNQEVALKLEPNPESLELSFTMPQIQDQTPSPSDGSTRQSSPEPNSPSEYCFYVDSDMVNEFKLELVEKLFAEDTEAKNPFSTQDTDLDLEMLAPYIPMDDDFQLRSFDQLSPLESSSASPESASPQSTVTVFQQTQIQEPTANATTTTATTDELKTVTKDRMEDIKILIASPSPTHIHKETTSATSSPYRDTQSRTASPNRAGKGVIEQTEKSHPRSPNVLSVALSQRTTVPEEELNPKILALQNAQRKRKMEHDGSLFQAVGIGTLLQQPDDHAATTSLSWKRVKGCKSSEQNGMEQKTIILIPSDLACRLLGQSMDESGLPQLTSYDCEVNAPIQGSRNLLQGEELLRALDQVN

For `Cc1ccc(S(=O)(=O)Nc2cccc3cccnc23)c([N+](=O)[O-])c1`, the IC50 in experiment [1] (HIF-2a PANC, mean of runs) was > 99 µM (inactive); in experiment [1] (HIF-2a PANC, run 1), above 99 µM; in experiment [1] (HIF-2a PANC, run 2), above 99 µM; in experiment [1] (HIF-2a, mean of runs), 3.76 µM; in experiment [1] (HIF-2a, run 1), 3.87 µM; in experiment [1] (HIF-2a, run 2), 3.66 µM. Besides, the IC50 in experiment [2] (run 1) and in experiment [2] (run 2) was above 99 µM throughout.
On to `CCOC(=O)c1c(C)nn(-c2ccc(NC(=O)c3c(C)noc3C)cc2)c1C`, for which the IC50 result in experiment [1] (HIF-2a PANC, mean of runs) was “inactive”; in experiment [2] (mean of runs), “inactive”. For the same molecule, the IC50 in experiment [1] (HIF-2a PANC, run 1) was 15.3 µM; in experiment [1] (HIF-2a PANC, run 2), 13.2 µM; in experiment [1] (HIF-2a, mean of runs), 4.26 µM; in experiment [1] (HIF-2a, run 1), 4.25 µM; in experiment [1] (HIF-2a, run 2), 4.26 µM; in experiment [2] (run 1), 10.2 µM. In experiment [2] (run 2), the IC50 worked out at 11.8 µM.
`COc1ccc(/C=C2\SC(=O)N(CCNC(=O)Cn3[nH]c(=O)c4ccccc4c3=O)C2=O)cc1`: the IC50 in experiment [1] (HIF-2a PANC, mean of runs) is 7.76 µM; in experiment [1] (HIF-2a PANC, run 1) it was 8.52 µM; in experiment [1] (HIF-2a PANC, run 2) it was 7.01 µM; in experiment [1] (HIF-2a, run 1), 12 µM; in experiment [1] (HIF-2a, run 2), 13.1 µM; in experiment [2] (run 1), 7.03 µM. For the same molecule, the IC50 in experiment [2] (run 2) is 17.2 µM. The IC50 result was “inactive” in experiment [1] (HIF-2a, mean of runs) and “inactive” in experiment [2] (mean of runs).
For `CCOC(=O)CNC(=O)CSc1nnc(NC(=O)c2ccc(C)cc2)s1`, the IC50 result in experiment [1] (HIF-2a PANC, mean of runs) was “inactive”. The half-inhibitory concentration (IC50) in experiment [1] (HIF-2a PANC, run 1) was 63.2 µM; in experiment [1] (HIF-2a PANC, run 2), 25.5 µM; in experiment [1] (HIF-2a, mean of runs), 9.66 µM; in experiment [1] (HIF-2a, run 1) it was 11.8 µM; in experiment [1] (HIF-2a, run 2) it was 7.56 µM; in experiment [2] (run 1) it was above 99 µM. For the same molecule, the IC50 in experiment [2] (run 2) is above 99 µM.
With `O=[N+]([O-])C1C(c2ccccc2)C12c1ccccc1-c1ccccc12` (stereo not drawn), the IC50 in experiment [1] (HIF-2a PANC, run 1) was above 99 µM; in experiment [1] (HIF-2a PANC, run 2), below 3 µM; in experiment [1] (HIF-2a, mean of runs) it was 7.05 µM; in experiment [1] (HIF-2a, run 1), 7.84 µM; in experiment [1] (HIF-2a, run 2), 6.26 µM; in experiment [2] (mean of runs), 40.8 µM. The IC50 in experiment [2] (run 1) turned out to be 41.2 µM; in experiment [2] (run 2), 40.3 µM.
Consider `Cc1ccc(C(C)C)c(OCc2ccc(C(=O)N/N=C/c3ccc(C(=O)O)cc3)cc2)c1`, for which the IC50 in experiment [1] (HIF-2a PANC, mean of runs) was 0.378 µM; in experiment [1] (HIF-2a PANC, run 1), 0.507 µM; in experiment [1] (HIF-2a PANC, run 2), 0.248 µM; in experiment [1] (HIF-2a, mean of runs), 0.45 µM; in experiment [1] (HIF-2a, run 1), 0.421 µM; in experiment [1] (HIF-2a, run 2), 0.479 µM. Besides, the IC50 in experiment [2] (run 1) and in experiment [2] (run 2) was above 99 µM each time.
Regarding `Cc1nc(SCc2ccc(C(=O)O)cc2)nc2c1CCCC2`, the IC50 result in experiment [1] (HIF-2a PANC, mean of runs) is “inactive”; in experiment [2] (mean of runs), “inactive”. Moreover, the IC50 in experiment [1] (HIF-2a PANC, run 1) was 20.8 µM; in experiment [1] (HIF-2a PANC, run 2), 23.6 µM; in experiment [1] (HIF-2a, mean of runs), 4.53 µM; in experiment [1] (HIF-2a, run 1), 4.31 µM; in experiment [1] (HIF-2a, run 2) it was 4.75 µM; in experiment [2] (run 1) it was 12.3 µM. Further, the IC50 in experiment [2] (run 2) is 7.67 µM.
Consider `Cc1cccc(NC(=S)NNc2ncc(C(F)(F)F)cc2Cl)c1`, for which the IC50 in experiment [1] (HIF-2a PANC, mean of runs) is 2.01 µM; in experiment [1] (HIF-2a PANC, run 1) it was 2.31 µM; in experiment [1] (HIF-2a PANC, run 2), 1.71 µM; in experiment [1] (HIF-2a, mean of runs) it was 8.98 µM; in experiment [1] (HIF-2a, run 1) it was 8.85 µM; in experiment [1] (HIF-2a, run 2), 9.11 µM. Also, the IC50 is 30.1 µM in experiment [2] (mean of runs), 33.1 µM in experiment [2] (run 1) and 27.1 µM in experiment [2] (run 2).
Turning to `COc1cc(OC)cc(-c2nnc(Nc3nc4c(F)cccc4s3)o2)c1`, the IC50 in experiment [1] (HIF-2a PANC, mean of runs) is 6.26 µM; in experiment [1] (HIF-2a PANC, run 1), 7.31 µM; in experiment [1] (HIF-2a PANC, run 2), 5.21 µM; in experiment [1] (HIF-2a, mean of runs) it was 3.15 µM; in experiment [1] (HIF-2a, run 1), 4.09 µM; in experiment [1] (HIF-2a, run 2), 2.2 µM. In addition, the IC50 in experiment [2] (run 1) and in experiment [2] (run 2) was above 99 µM throughout.
Consider `Cc1ccc(C(=O)c2cccc(N)c2)cc1C`, for which, in experiment [1] (HIF-2a PANC, mean of runs), the IC50 result is “inactive”. Besides, the IC50 in experiment [1] (HIF-2a PANC, run 1) was 3.29 µM; in experiment [1] (HIF-2a PANC, run 2) it was 6.42 µM; in experiment [1] (HIF-2a, mean of runs), 0.864 µM; in experiment [1] (HIF-2a, run 1), 0.858 µM; in experiment [1] (HIF-2a, run 2) it was 0.87 µM; in experiment [2] (mean of runs), 4.05 µM. The IC50 amounted to 5.07 µM in experiment [2] (run 1) and 3.03 µM in experiment [2] (run 2).
For `Cc1c(CCC(=O)N2CCC(C(=O)O)(c3ccccc3)CC2)c(=O)oc2cc3oc4c(c3cc12)CCCC4`, the IC50 in experiment [1] (HIF-2a PANC, mean of runs) is 3.13 µM; in experiment [1] (HIF-2a PANC, run 1) it was 3.77 µM; in experiment [1] (HIF-2a PANC, run 2) it was 2.49 µM; in experiment [1] (HIF-2a, mean of runs), 1.41 µM; in experiment [1] (HIF-2a, run 1) it was 1.57 µM; in experiment [1] (HIF-2a, run 2), 1.24 µM. Further, the IC50 in experiment [2] (mean of runs) is 5.97 µM; in experiment [2] (run 1), 7.31 µM; in experiment [2] (run 2) it was 4.63 µM.
Turning to `Cc1c(CCC(=O)O)c(=O)oc2cc3oc4c(c3cc12)CCCC4`, the IC50 in experiment [1] (HIF-2a PANC, mean of runs) was 0.708 µM; in experiment [1] (HIF-2a PANC, run 1), 0.793 µM; in experiment [1] (HIF-2a PANC, run 2) it was 0.623 µM; in experiment [1] (HIF-2a, mean of runs) it was 0.276 µM; in experiment [1] (HIF-2a, run 1), 0.267 µM; in experiment [1] (HIF-2a, run 2) it was 0.286 µM. In addition, the results for the IC50 in experiment [2] (mean of runs), in experiment [2] (run 1) and in experiment [2] (run 2) were 1.12 µM, 1.15 µM and 1.08 µM, respectively.

The IC50 is the concentration that inhibits the measured activity by half.
